The text below walks through data of patent US9079853B2, “Isatin compounds, compositions and methods for treatment of degenerative diseases and disorders” (MUSC FOUNDATION FOR RESEARCH DEVELOPMENT, priority 2013, dated 2015).

One experiment deals with 661W or C6 cells. Kind of experiment: MTT assay, protection against calcium-ionophore A23187. The note with it: 1 μM ionophore, 24 h. The class given is cell-based. On the procedure:
The compound 3-(4,5-Dimethylthiazol-2-yl)-2,5-diphenyltetrazolium bromide (MTT) is a tetrazolium ion that is reduced to a blue formazan dye via several families of NAD(P)H-dependent oxidoreductases. Formation of the formazan dye from MTT or other related tetrazolium dyes are commonly used as a viability assay even though, in fact, the assay is a metabolic capacity assay.
In this assay, 661W or C6 cells were maintained in DMEM supplemented with 10% FBS. 100 μL of 70,000 cells/mL cells were seeded into each well of 96 well plates using DMEM supplemented with 5% FBS. Cells were then allowed to grow to confluency for 48 hours. The compounds of the invention were added in 2 μL media and calcium-ionophore A23187 was then added in 1 μL for a final concentration of 1 μM and after 24 h, 20 μL of […] MTT were added to each well and the cells were incubated for another 4 h after which 100 μL of 1% SDS in 0.01M aqueous HCl were added to each well and the plates were incubated overnight. Absorbance was measured at […] (background correction). The 1 μM ionophore A23187 caused about 50% loss in MTT signal at 24 h. Protection was calculated as the increase in absorbance of treatment groups normalized to the vehicle control.
`CNc1ccc2oc(C[C@H]3O[C@@]4(CC[C@H]3C)O[C@H]([C@H](C)C(=O)c3ccc[nH]3)[C@H](C)C[C@H]4C)nc2c1C(=O)O` [Example A23187, reference compound]: the “loss in MTT signal” value is “about 50%”.

Staying with this experiment, now noted: compound 800 pM; 1 μM A23187, 24 h.
`Cc1ccc2c(c1)C(O)(Cc1ccccn1)C(=O)N2CCc1ccccc1` (stereo not drawn) [Example 9, 3-hydroxy-5-methyl-1-phenethyl-3-(pyridin-2-ylmethyl)indolin-2-one]: the “MTT, % protection” value is 62.5%,.
As to `COc1cc(CC2(OC(=O)c3ccccc3)C(=O)N(CC(C)C)c3ccccc32)cc(OC)c1OC` (stereo not drawn) [Example 49, 1-isobutyl-2-oxo-3-(3,4,5-trimethoxybenzyl)indolin-3-yl benzoate], the “MTT, % protection” value is reported as 78.3%,.
Consider `COc1ccc(O)c(CC2(OC(=O)c3ccccc3)C(=O)N(CC(C)C)c3ccccc32)c1` (stereo not drawn) [Example 54, 3-(2-hydroxy-5-methoxybenzyl)-1-isobutyl-2-oxoindolin-3-yl benzoate], for which the “MTT, % protection” value was 85.8%,.
Regarding `CCN1C(=O)C(Cc2ccc(OC)cc2O)(OC(=O)c2ccccc2)c2ccccc21` (stereo not drawn) [Example 57, 1-ethyl-3-(2-hydroxy-4-methoxybenzyl)-2-oxoindolin-3-yl benzoate], the “MTT, % protection” value was 71%,.

The experiment is the same for the next values; noted with them: compound 1 nM; 1 μM A23187, 24 h.
For the compound `CCCN1C(=O)C(O)(Cc2ccc(OC)cn2)c2cc(Cl)ccc21` (stereo not drawn) [Example 5, 5-chloro-3-hydroxy-3-((5-methoxypyridin-2-yl)methyl)-1-propylindolin-2-one], the “MTT, % protection” value is recorded as 39.2%,.
Consider `CCN1C(=O)C(O)(Cc2ncccc2OC)c2cc(C)ccc21` (stereo not drawn) [Example 8, 1-ethyl-3-hydroxy-3-((3-methoxypyridin-2-yl)methyl)-5-methylindolin-2-one], for which the “MTT, % protection” value is reported as 65.9%,.
As to `CCN1C(=O)C(O)(Cc2ccccn2)c2cc(Cl)ccc21` (stereo not drawn) [Example 10, 5-chloro-1-ethyl-3-hydroxy-3-(pyridin-2-ylmethyl)indolin-2-one], the “MTT, % protection” value was 52.7%,.
`COc1ccc(CC2(OC(=O)c3ccccc3)C(=O)N(CCc3ccccc3)c3ccc(C)cc32)cc1OC` (stereo not drawn) [Example 44, 3-(3,4-dimethoxybenzyl)-5-methyl-2-oxo-1-phenethylindolin-3-yl benzoate]: the “MTT, % protection” value was 72%,.
Same read-out and setting: to `COc1ccc(CC2(OC(=O)c3ccccc3)C(=O)N(CCC(C)C)c3ccccc32)cc1OC` (stereo not drawn) [Example 45, 3-(3,4-dimethoxybenzyl)-1-isopentyl-2-oxoindolin-3-yl benzoate] belongs 63%,; to `CCCN1C(=O)C(Cc2ccc(OC)c(OC)c2)(OC(=O)c2ccccc2)c2cc(C)ccc21` (stereo not drawn) [Example 47, 3-(3,4-dimethoxybenzyl)-5-methyl-2-oxo-1-propylindolin-3-yl benzoate], 21.8%,; to `COc1cccc(CC2(OC(=O)c3ccccc3)C(=O)N(CCC(C)C)c3ccc(Cl)cc32)c1O` (stereo not drawn) [Example 55, 5-chloro-3-(2-hydroxy-3-methoxybenzyl)-1-isopentyl-2-oxoindolin-3-yl benzoate], 67.4%,.
In the case of `CCN1C(=O)C(Cc2cc(OC)ccc2O)(OC(=O)c2ccccc2)c2cc(C)ccc21` (stereo not drawn) [Example 60, 1-ethyl-3-(2-hydroxy-5-methoxybenzyl)-5-methyl-2-oxoindolin-3-yl benzoate], the “MTT, % protection” value was 68.7%,.

Still in this experiment, the particulars now being: compound 100 nM; 1 μM A23187, 24 h.
Regarding `C#Cc1cccc(C(=O)CC2(O)C(=O)N(CCC)c3ccc(Cl)cc32)n1` (stereo not drawn) [Example 14, 5-chloro-3-(2-(6-ethynylpyridine-2-yl)-2-oxoethyl)-3-hydroxy-1-propylindolin-2-one], the “MTT, % protection” value is given as 69.6%,.
Still for that read-out and setting: under `Cc1ccc2c(c1)C(O)(CC(=O)c1c[nH]c3ccccc13)C(=O)N2CCC(C)C` (stereo not drawn) [Example 15, 3-(2-(1H-indol-3-yl)-2-oxoethyl)-3-hydroxy-1-isopentyl-5-methylindolin-2-one] stands 108.5%,.
The same measure, in the same setting: under `CC(C)CN1C(=O)C(O)(CC(=O)c2ccccn2)c2ccccc21` (stereo not drawn) [Example 16, 3-hydroxy-1-isobutyl-3-(2-oxo-2-(pyridin-2-yl)ethyl)indolin-2-one] stands 78.7%,.
On the same count and under the same terms, to `COc1cccc(C(=O)CC2(O)C(=O)N(CC(C)C)c3ccc(Cl)cc32)n1` (stereo not drawn) [Example 17, 5-chloro-3-hydroxy-1-isobutyl-3-(2-(6-methoxypyridin-2-yl)-2-oxoethyl)indolin-2-one] belongs 111%,; to `COc1cccc(C(=O)CC2(O)C(=O)N(CCN3CCCCC3)c3ccc(Cl)cc32)n1` (stereo not drawn) [Example 18, 5-chloro-3-hydroxy-3-(2-(6-methoxypyridin-2-yl)-2-oxoethyl)-1-(2-(piperidin-1-yl)ethyl)indolin-2-one], 68.8%,; to `CCN1C(=O)C(O)(CC(=O)c2ccccn2)c2cc(Cl)ccc21` (stereo not drawn) [Example 19, 5-chloro-1-ethyl-3-hydroxy-3-(2-oxo-2-(pyridin-2-yl)ethyl)indolin-2-one], 81.8%,.
Regarding `CC(C)CN1C(=O)C(O)(CC(=O)c2c[nH]c3ccccc23)c2ccccc21` (stereo not drawn) [Example 20, 3-(2-(1H-indol-3-yl)-2-oxoethyl)-3-hydroxy-1-isobutylindolin-2-one], the “MTT, % protection” value is reported as 59.5%,.
`CC(C)CCN1C(=O)C(O)(CC(=O)c2c[nH]c3ccccc23)c2ccccc21` (stereo not drawn) [Example 21, 3-(2-(1H-indol-3-yl)-2-oxoethyl)-3-hydroxy-1-isopentylindolin-2-one]: the “MTT, % protection” value is on record as 82.9%,.
Regarding `COc1cccc(C(=O)CC2(O)C(=O)N(CC(C)C)c3ccc(C)cc32)n1` (stereo not drawn) [Example 29, 3-hydroxy-1-isobutyl-3-(2-(6-methoxypyridin-2-yl)-2-oxoethyl)-5-methylindolin-2-one], the “MTT, % protection” value is 98.9%,.
Take `CC(C)CN1C(=O)C(O)(CC(=O)c2ccccn2)c2cc(Cl)ccc21` (stereo not drawn) [Example 32, 5-chloro-3-hydroxy-1-isobutyl-3-(2-oxo-2-(pyridin-2-yl)ethyl)indolin-2-one]: the “MTT, % protection” value is 102%,.
With `CCN1C(=O)C(Cc2cc(OC)c(OC)c(OC)c2)(OC(=O)c2ccccc2)c2cc(C)ccc21` (stereo not drawn) [Example 33, 1-ethyl-5-methyl-2-oxo-3-(3,4,5-trimethoxybenzyl)indolin-3-yl benzoate], the “MTT, % protection” value is 50%,.
The same measure, in the same setting: to `COc1cc(CC2(OC(=O)c3ccccc3)C(=O)N(CC(C)C)c3ccc(C)cc32)cc(OC)c1OC` (stereo not drawn) [Example 36, 1-isobutyl-5-methyl-2-oxo-3-(3,4,5-trimethoxybenzyl)indolin-3-yl benzoate] belongs 86.8%,.
The same measure, in the same setting: under `CCCN1C(=O)C(Cc2ccc(OC)cc2O)(OC(=O)c2ccccc2)c2ccccc21` (stereo not drawn) [Example 52, 3-(2-hydroxy-4-methoxybenzyl)-2-oxo-1-propylindolin-3-yl benzoate] stands 24%,; under `CCCN1C(=O)C(O)(Cc2cn(C(=O)c3ccccc3)c3ccccc23)c2cc(C)ccc21` (stereo not drawn) [Example 64, 3-((1-benzoyl-1H-indol-3-yl)methyl)-3-hydroxy-5-methyl-1-propylindolin-2-one], 51.5%,.

The same experiment, now with this note: compound 1 μM; 1 μM A23187, 24 h.
`Cc1ccc2c(c1)C(O)(Cc1ncccc1Br)C(=O)N2CCC(C)C` (stereo not drawn) [Example 1, 3-((3-bromopyridin-2-yl)methyl)-3-hydroxy-1-isopentyl-5-methylindolin-2-one]: the “MTT, % protection” value is reported as 12%,.
Regarding `CCN1C(=O)C(O)(Cc2ncccc2OC)c2cc(Cl)ccc21` (stereo not drawn) [Example 7, 5-chloro-1-ethyl-3-hydroxy-3-((3-methoxypyridin-2-yl)methyl)indolin-2-one], the “MTT, % protection” value is listed as 43.8%,.
On the same count and under the same terms, to `COc1ccc(CC2(O)C(=O)N(CCc3ccccc3)c3ccc(C)cc32)nc1` (stereo not drawn) [Example 11, 3-hydroxy-3-((5-methoxypyridin-2-yl)methyl)-5-methyl-1-phenethylindolin-2-one] belongs 35.7%,; to `Cc1ccc2c(c1)C(O)(CC(=O)c1c[nH]c3ccccc13)C(=O)N2CCCN=[N+]=[N-]` (stereo not drawn) [Example 27, 3-(2-(1H-indol-3-yl)-2-oxoethyl)-1-(3-azidopropyl)-3-hydroxy-5-methylindolin-2-one], 66%,; to `COc1ccc(CC2(OC(=O)c3ccccc3)C(=O)N(CCC(C)C)c3ccc(C)cc32)cc1OC` (stereo not drawn) [Example 46, 3-(3,4-dimethoxybenzyl)-1-isopentyl-5-methyl-2-oxoindolin-3-yl benzoate], 82%,.

The next experiment has as its system 661W or C6 cells. Kind of experiment: XF FCCP-uncoupled oxygen consumption rate assay (IBMX challenge). The class given is cell-based. The note with it: IBMX treatment alone, 600 μM, 24 h. As to the method:
The XF FCCP-uncoupled oxygen consumption rate assay assesses mitochondrial capacity by measuring cellular respiration. It was shown that the maximum FCCP-uncoupled oxygen consumption rate (OCR) was a good estimate of maximal mitochondrial capacity (Beeson 2010) and that IBMX treatment of 661W or C6 cells for 24 h caused a loss in maximal uncoupled OCR (Perron 2013). Thus, cells were pretreated with the exemplified compounds for 1 h, added 600 μM IBMX and then measured the uncoupled rate after 24 h. In brief, the OCR measurements were performed using a Seahorse Bioscience XF instrument (Seahorse Bioscience, Billerica, Md.), as previously published (Perron 2013). O2 leakage through the plastic sides and bottom of the plate was accounted for using the AKOS algorithm in the XF software package. Cells were plated on 96- or 24-well custom plates designed for use in the XF and grown to confluency in DMEM+5% FBS (48 h). The medium was then replaced with DMEM+1% FBS for 24 h, along with any treatments.
As to `CC(C)Cn1c(=O)n(C)c(=O)c2[nH]cnc21` [IBMX, reference compound], the “decrease in the uncoupled rate (OCR)” value was around 50%.
